Test system: Kwl:A-1 brown guinea pigs
Test: Pigmentation inhibitory effect: UVB-induced pigmentation in brown guinea pigs, L value (lightness) by color-difference meter
Format: in vivo, guinea pig
Settings: 10 ml/kg; for Final day of the test L value: L value (lightness) of the irradiated site on final day (14 days), oral, twice a day, UVB on day 0, 2nd and 4th days; for ΔL value: L value on the observation day minus L value before irradiation, final day (14 days), oral twice a day, larger ΔL values show higher effect
Excerpt: Ultraviolet ray (UVB) irradiation time was examined using two female 6-week-old Kwl:A-1 brown guinea pigs (SPF). That is, one of the guinea pigs was fixed on the abdominal position, and three 2 cm×2 cm square ultraviolet ray irradiating sites were arranged in bilateral symmetry with the dorsal midline between, thus six sites in total. By shading the body except for the ultraviolet ray irradiating sites, an ultraviolet ray (UVB) was irradiated from a distance of 40 cm using five SE lamps (wavelength 250 to 350 nm, F[…]-E, manufactured by TOSHIBA). […] Examination was made by using five female 7-week-old Kwl:A-1 brown guinea pigs (SPF) in one group. That is, each of the guinea pigs was fixed on the abdominal position using a fixation plate on the respective ultraviolet ray irradiating days (on the day of the commencement of sample administration and on the 2nd and 4th days thereafter). One 2 cm×2 cm square arranged on the left or right side with the guinea pig dorsal midline between was used as the ultraviolet ray irradiating site, and the body was shaded except for the ultraviolet ray irradiating site. Two guinea pigs in one group were irradiated with an ultraviolet ray (LTVB) for 11 minutes and 30 seconds, and three guinea pigs in one group, from a distance of 40 cm using five SE lamps (wavelength 250 to 350 nm, F[…]·E, manufactured by TOSHIBA). During the testing period (14 days), each test sample was orally administered twice a day. Each sample solution was administered at a dose of 10 ml/kg. In this case, the administration was carried out after the ultraviolet ray irradiation on each ultraviolet ray irradiation day, or after the judgment on each pigmentation judging day. Before the irradiation on the day of the commencement of test sample administration and on the final day of the test, a ΔL value (L value on the observation day-L value before irradiation) was calculated by measuring L value (lightness) of the irradiated site using a color-difference meter (CR-300, manufactured by MINOLTA CAMERA).

Structure (SMILES) | Final day of the test L value | ΔL value
NC[C@H]1CC[C@H](C(=O)O)CC1 [Sample (2), tranexamic acid] | 58.30 ± 1.20 | −3.76 ± 1.78
N[C@@H](CS)C(=O)O [Sample (3), L-cysteine] | 59.52 ± 3.10 | −3.32 ± 1.70
O=C1O[C@H]([C@@H](O)CO)C(O)=C1O [Sample (4), ascorbic acid] | 57.35 ± 1.56 | −4.76 ± 1.62
